Experimental data from US4242325A, “Phosphorotriamides as urease inhibitors” (priority 1979, dated 1980).
pIC50: −log10 of the molar value.

Target: T1, Urease Purified from Proteus mirabilis (Pr-91) (Proteus mirabilis, UniProt P17086)
T1 construct: host or cells: Proteus mirabilis (Pr-91)
Test: Inhibition of urease purified from Proteus mirabilis (Pr-91)
Format: biochemical
Settings: not given
Text: The Inhibition of Urease Purified from Proteus mirabilis (Pr-91)
Concentration of Compounds of Formula [drawing 5] for 50% Inhibition of Urease.

T1 sequence (P17086 whole entry): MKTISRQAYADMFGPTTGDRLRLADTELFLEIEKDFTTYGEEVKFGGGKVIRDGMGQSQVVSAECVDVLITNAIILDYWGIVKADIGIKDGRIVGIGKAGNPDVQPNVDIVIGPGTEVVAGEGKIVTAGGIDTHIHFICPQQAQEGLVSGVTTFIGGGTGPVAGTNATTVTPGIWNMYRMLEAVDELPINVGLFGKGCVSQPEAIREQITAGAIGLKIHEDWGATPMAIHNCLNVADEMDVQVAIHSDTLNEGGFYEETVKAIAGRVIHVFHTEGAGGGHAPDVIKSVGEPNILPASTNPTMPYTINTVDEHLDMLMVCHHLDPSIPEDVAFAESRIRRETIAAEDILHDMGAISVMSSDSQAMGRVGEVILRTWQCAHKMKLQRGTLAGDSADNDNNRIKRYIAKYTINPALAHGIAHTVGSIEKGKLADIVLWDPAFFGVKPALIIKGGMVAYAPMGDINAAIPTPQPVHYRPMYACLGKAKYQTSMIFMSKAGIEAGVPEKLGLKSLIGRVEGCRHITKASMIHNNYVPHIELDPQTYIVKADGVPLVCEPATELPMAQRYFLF
T1 sequence (P17088 whole entry, further chain): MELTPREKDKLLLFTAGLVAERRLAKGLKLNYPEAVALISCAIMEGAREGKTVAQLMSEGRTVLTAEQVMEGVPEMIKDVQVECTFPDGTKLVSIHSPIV
T1 sequence (P17087 whole entry, further chain): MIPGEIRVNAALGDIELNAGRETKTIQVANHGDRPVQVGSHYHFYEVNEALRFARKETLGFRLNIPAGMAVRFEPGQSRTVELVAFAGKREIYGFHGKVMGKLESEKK

Going from `Nc1ccc(NP(N)(N)=O)cc1` [4-Aminophenyl, N-(4-Aminophenyl)phosphorotriamide] to `N#Cc1ccc(NP(N)(N)=O)cc1` [4-Cyanophenyl, N-(4-Cyanophenyl)phosphorotriamide], the pIC50 falls from 4.80 to 4.30 (0.50 log units). The first is the more potent here.

First: NP(N)(=O)Nc1cccc(C(F)(F)F)c1 [3-Trifluoromethylphenyl, N-[3-(Trifluoromethyl)phenyl]phosphorotriamide]
Second: NP(N)(=O)Nc1ccccc1 [Phenyl]
The pIC50 of the first is 0.49 log units lower: 4.40 for the first, 4.89 for the second. The second is the more potent here.

For `NP(N)(=O)Nc1ccc([N+](=O)[O-])cc1` [4-Nitrophenyl, N-(4-Nitrophenyl)phosphorotriamide], the pIC50 was 6.46.

Same assay, conditions: urease purified from Proteus mirabilis (Pr-91); read-out: Concentration of compound for 50% inhibition of urease

In the case of `NP(N)(N)=O` [H], the pIC50 was 6.92.
